Patent US20100093804A1, “NOVEL CRYSTALLINE FORM OF LANSOPRAZOLE” (HETERO DRUGS LIMITED, priority 2006, published 2010)
Where two headings read alike, the source gives them in different places.

Assays:
[1] = solid-solid transition to form A; cited from earlier work
[2] = cited from earlier work
[3] = stability of the crystalline form over time; format: physicochemical

## Cc1c(OCC(F)(F)F)ccnc1C[S+]([O-])c1nc2ccccc2[nH]1 (stereo not shown) [crystalline lansoprazole form B, 2-[[[3-Methyl-4-(2,2,2-trifluoro-ethoxy)-2-pyridinyl]methyl]sulfinyl]-1H-benzimidazole]
[1]
  stability of crystalline form: unstable

## Cc1c(OCC(F)(F)F)ccnc1C[S+]([O-])c1nc2ccccc2[nH]1 (stereo not shown) [lansoprazole crystalline form II, 2-[[[3-Methyl-4-(2,2,2-trifluoro-ethoxy)-2-pyridinyl]methyl]sulfinyl]-1H-benzimidazole]
[2]; after some period of sample storage at higher temperatures
  stability of crystalline form on storage: converted to stable crystalline form I
[2]; at temperatures below 0° C.
  stability of crystalline form: stable

## Cc1c(OCC(F)(F)F)ccnc1C[S+]([O-])c1nc2ccccc2[nH]1 (stereo not shown) [lansoprazole form III, 2-[[[3-Methyl-4-(2,2,2-trifluoro-ethoxy)-2-pyridinyl]methyl]sulfinyl]-1H-benzimidazole]
[3]
  stability of crystalline form: stable
